The results in this text go back to patent publication US7812036B2, “Androgens” (N.V. Organon, priority 2004, dated 2010).

The assay addresses T1, human androgen receptor (Homo sapiens, UniProt P10275).
T1 construct: expressed in transfected cells; host or cells: Chinese hamster ovary (CHO) cells, line CHO-AR-pMMTV-LUC 1G12-A5-CA
T1 sequence (P10275 1-920): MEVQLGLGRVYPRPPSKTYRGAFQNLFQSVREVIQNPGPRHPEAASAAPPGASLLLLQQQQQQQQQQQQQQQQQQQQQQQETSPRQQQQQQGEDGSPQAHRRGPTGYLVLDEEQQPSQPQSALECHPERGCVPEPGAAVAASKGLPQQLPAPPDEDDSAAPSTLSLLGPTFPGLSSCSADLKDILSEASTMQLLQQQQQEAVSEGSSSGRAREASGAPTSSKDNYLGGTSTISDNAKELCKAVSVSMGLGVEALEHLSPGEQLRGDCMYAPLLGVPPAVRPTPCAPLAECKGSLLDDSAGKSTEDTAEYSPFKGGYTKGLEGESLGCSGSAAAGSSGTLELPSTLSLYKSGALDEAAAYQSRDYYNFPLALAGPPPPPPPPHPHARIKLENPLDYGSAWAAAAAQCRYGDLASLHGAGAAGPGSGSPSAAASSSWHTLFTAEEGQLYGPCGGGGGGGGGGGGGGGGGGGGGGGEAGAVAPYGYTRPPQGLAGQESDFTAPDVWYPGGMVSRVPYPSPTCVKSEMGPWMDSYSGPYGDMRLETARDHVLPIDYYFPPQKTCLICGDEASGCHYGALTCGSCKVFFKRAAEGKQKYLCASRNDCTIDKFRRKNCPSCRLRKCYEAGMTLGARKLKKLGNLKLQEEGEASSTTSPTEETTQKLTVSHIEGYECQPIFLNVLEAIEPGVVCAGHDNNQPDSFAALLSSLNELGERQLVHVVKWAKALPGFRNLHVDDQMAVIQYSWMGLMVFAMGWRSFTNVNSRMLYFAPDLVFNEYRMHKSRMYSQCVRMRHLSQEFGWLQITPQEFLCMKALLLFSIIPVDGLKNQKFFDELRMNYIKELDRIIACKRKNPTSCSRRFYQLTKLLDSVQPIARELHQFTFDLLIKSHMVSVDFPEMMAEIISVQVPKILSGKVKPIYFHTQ
Kind of assay: Androgenic activity (potency) in vitro bioassay, CHO-AR-pMMTV-LUC 1G12-A5-CA cells, luciferase reporter. The class given is cell-based. The note with it: CHO cells stably transfected with human androgen receptor and MMTV-luciferase reporter; in the presence of 0.1 μmol/l onapristone; potencies expressed as percentage of DHT activity (maximal efficacy with 100 nmol/l DHT set as 100%). On the procedure: The androgenic activity (potency) of the compounds of the invention was determined in an in vitro bioassay of Chinese hamster ovary (CHO) cells stably transfected with the human androgen receptor expression plasmid and a reporter plasmid in which the MMTV promoter is linked to the luciferase reporter gene. The cell line CHO-AR-pMMTV-LUC 1G12-A5-CA is described in Schoonen et al. (J. Steroid Biochem. Molec. Biol. 2002; 74: 213-222). The androgen receptor activity of compounds was determined in the presence of 0.1 μmol/l onapristone. The maximal efficacy in the presence of 100 nmol/1 DHT was set as 100%. The potencies are expressed as percentage of DHT activity.

On to `COCCNc1ccc2c(Sc3ccccc3[N+](=O)[O-])cn(Cc3cccnc3)c2c1` [Example 21f, (2-Methoxy-ethyl)-[3-(2-nitro-phenylsulfanyl)-1-pyridin-3-ylmethyl-1H-indol-6-yl]-amine], for which the “Potency (%)” value is 20.9%.
With `N#CCNc1ccc2c(Sc3ccccc3[N+](=O)[O-])cn(Cc3ccccn3)c2c1` [Example 21d, [3-(2-Nitro-phenylsulfanyl)-1-pyridin-2-ylmethyl-1H-indol-6-ylamino]-acetonitrile], the “Potency (%)” value is given as 6.7%.
Turning to `CNc1ccc2c(Sc3ccccc3[N+](=O)[O-])cn(Cc3cncnc3)c2c1` [Example 5g, Methyl-[3-(2-nitro-phenylsulfanyl)-1-pyrimidin-5-ylmethyl-1H-indol-6-yl]-amine], the “Potency (%)” value was found to be 21.6%.
To `CNc1ccc2c(Sc3ccccc3[N+](=O)[O-])cn(Cc3cc(C#N)cc(C#N)c3)c2c1` [Example 5s, 5-[6-Methylamino-3-(2-nitro-phenylsulfanyl)-indol-1-ylmethyl]-isophthalonitrile] belongs 5.9%; to `CNc1ccc2c(Sc3ccccc3[N+](=O)[O-])cn(Cc3ncco3)c2c1` [Example 5m, Methyl-[3-(2-nitro-phenylsulfanyl)-1-oxazol-2-ylmethyl-1H-indol-6-yl]-amine], 3.2%.
The result for `CNc1ccc2c(Sc3ccccc3[N+](=O)[O-])cn(Cc3cc(F)cc(F)c3)c2c1` [Example 1] reads 15.0%.
The result for `CN(C)c1ccc2c(Sc3ccccc3[N+](=O)[O-])cn(Cc3ccccn3)c2c1` [Example 19c, Dimethyl-[3-(2-nitro-phenylsulfanyl)-1-pyridin-2-ylmethyl-1H-indol-6-yl]-amine] reads 1.2%; that for `CNc1ccc2c(Sc3ccccc3[N+](=O)[O-])cn(Cc3ccno3)c2c1` [Example 5n, [1-Isoxazol-5-ylmethyl-3-(2-nitro-phenylsulfanyl)-1H-indol-6-yl]-methyl-amine], 19.4%.
`N#CCNc1ccc2c(Sc3ccccc3C#N)cn(Cc3cc(F)cc(F)c3)c2c1` [Example 21g, 2-[6-(Cyanomethyl-amino)-1-(3,5-difluoro-benzyl)-1H-indol-3-ylsulfanyl]-benzonitrile]: the “Potency (%)” value stood at 9.2%.
The result for `CNc1ccc2c(S(=O)(=O)c3ccccc3[N+](=O)[O-])cn(Cc3ccccn3)c2c1` [Example 14, Methyl-[3-(2-nitro-phenylsulfonyl)-1-pyridin-2-ylmethyl-1H-indol-6-yl]-amine] reads 1.9%; that for `CNc1ccc2c(Sc3ccccc3[N+](=O)[O-])cn(Cc3ccccn3)c2c1` [Example 2, Methyl-[3-(2-nitro-phenylsulfanyl)-1-pyridin-2-ylmethyl-1H-indol-6-yl]-amine], 9.9%; that for `N#CCNc1ccc2c(Sc3ccccc3[N+](=O)[O-])cn(Cc3cc(F)cc(F)c3)c2c1` [Example 20, [1-(3,5-Difluoro-benzyl)-3-(2-nitro-phenylsulfanyl)-1H-indol-6-ylamino]-acetonitrile], 40.2%.
To `CNc1ccc2c(Sc3ccccc3[N+](=O)[O-])cn(Cc3cccnc3)c2c1` [Example 3, Methyl-[3-(2-nitro-phenylsulfanyl)-1-pyridine-3-ylmethyl-1H-indol-6-yl]-amine] belongs 13.4%; to `CC(=O)CNc1ccc2c(Sc3ccccc3[N+](=O)[O-])cn(Cc3cc(F)cc(F)c3)c2c1` [Example 21a, 1-[1-(3,5-Difluoro-benzyl)-3-(2-nitro-phenylsulfanyl)-1H-indol-6-ylamino]-propan-2-one], 7.2%.
To `CN(C)c1ccc2c(Sc3ccccc3[N+](=O)[O-])cn(Cc3cc(F)cc(F)c3)c2c1` [Example 18] belongs 2.7%.
With `C=C(C)CNc1ccc2c(Sc3ccccc3[N+](=O)[O-])cn(Cc3cc(F)cc(F)c3)c2c1` [Example 22c], the “Potency (%)” value came to 1.2%.
The result for `CNc1ccc2c(Sc3ccccc3C#N)cn(Cc3ccccn3)c2c1` [Example 7, 2-(6-Methylamino-1-pyridin-2-ylmethyl-1H-indol-3-ylsulfanyl)-benzonitrile] reads 1.1%; that for `CNc1ccc2c(Sc3ccccc3[N+](=O)[O-])cn(Cc3cocn3)c2c1` [Example 5j, Methyl-[3-(2-nitro-phenylsulfanyl)-1-oxazol-4-ylmethyl-1H-indol-6-yl]-amine], 14.8%.
